Data from ChEMBL document CHEMBL1201862, “PubChem BioAssay data set” (2004).
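In this assay, cells in 96-well plates receive the compound at five concentrations for 48 hours. Endpoints are linearly interpolated between the surrounding concentrations. At the GI50, growth is halved.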 Active and inactive are the calls of the source. Cut-off read from the data, not from the text of the source: active = GI50 up to about 1.1 µM and inactive = higher.

Legend:
Assay in all cases: NCI anticancer screen, dose series, 48 h
A549 = test system: A549
ACHN = test system: ACHN
COLO 205 = test system: COLO 205
DMS-273 = test system: DMS-273
HCC 2998 = test system: HCC 2998
HOP-62 = test system: HOP-62
HT-29 = test system: HT-29
IGROV-1 = test system: IGROV-1
K562 = test system: K562
KM12 = test system: KM12
M19-MEL = test system: M19-MEL
MDA-N = test system: MDA-N
OVCAR-3 = test system: OVCAR-3
OVCAR-5 = test system: OVCAR-5
RXF 393 = test system: RXF 393
SF-268 = test system: SF-268
SF-539 = test system: SF-539
SW-620 = test system: SW-620
TK-10 = test system: TK-10
UACC-257 = test system: UACC-257

Measured: GI50

O=C(CC1(O)C(=O)Nc2c(Cl)ccc(Cl)c21)c1ccco1 (stereo not drawn)
inactive: A549 23 µM | ACHN 20.5 µM | COLO 205 17.5 µM | DMS-273 34.6 µM | HCC 2998 33.5 µM | HOP-62 29.6 µM | HT-29 22.4 µM | IGROV-1 18.3 µM | K562 > 10 µM | KM12 27 µM | M19-MEL 2.31 µM | MDA-N 3.63 µM | OVCAR-3 13.5 µM | OVCAR-5 20.9 µM | RXF 393 19.4 µM | SF-268 25.4 µM | SF-539 27.9 µM | SW-620 20.1 µM | TK-10 > 53 µM | UACC-257 18 µM

BrCc1ccc2ccc3ccc(CBr)nc3c2n1
inactive: A549 13.3 µM | ACHN 2.1 µM | COLO 205 1.92 µM | DMS-273 1.77 µM | HCC 2998 2.86 µM | HOP-62 7 µM | HT-29 1.95 µM | IGROV-1 4.01 µM | K562 2.53 µM | KM12 3.61 µM | M19-MEL 3.86 µM | MDA-N 2.74 µM | OVCAR-3 1.72 µM | OVCAR-5 9.44 µM | RXF 393 2.24 µM | SF-268 3.27 µM | SF-539 4.67 µM | SW-620 2.2 µM | TK-10 2.57 µM | UACC-257 3.18 µM

CCCCCCCC(=O)OCC1OC(OC)C(NC(=O)N(CCCl)N=O)C(O)C1O (stereo not drawn)
inactive: A549 9.91 µM | ACHN 7.18 µM | COLO 205 14.7 µM | DMS-273 2.9 µM | HCC 2998 14.3 µM | HOP-62 4.27 µM | HT-29 15 µM | IGROV-1 21.7 µM | K562 12.4 µM | KM12 9.89 µM | M19-MEL 17.9 µM | OVCAR-3 19.7 µM | OVCAR-5 26.4 µM | RXF 393 16.1 µM | SF-268 2.15 µM | SF-539 2.64 µM | SW-620 4.17 µM | TK-10 18.5 µM | UACC-257 16.1 µM

COC(=O)c1cc2c(=O)n(C)c3ccccc3n2c1C(=O)OC
inactive: A549 66.4 µM | ACHN 83.2 µM | COLO 205 > 100 µM | DMS-273 51.6 µM | HCC 2998 33.5 µM | HOP-62 16.9 µM | HT-29 67.5 µM | IGROV-1 56.6 µM | K562 > 100 µM | KM12 63.1 µM | M19-MEL > 100 µM | OVCAR-3 30 µM | OVCAR-5 > 100 µM | RXF 393 36.2 µM | SF-268 30.3 µM | SF-539 26.1 µM | SW-620 64.9 µM | TK-10 25.6 µM | UACC-257 > 100 µM
